The NIST ThermoML archive (doi:10.1016/j.jct.2014.01.020)

Experiment: xn = mol fraction of the nth substance listed
Conditions: Liquid; for mass density: Vibrating tube method; for viscosity: 101 kPa, Concentric cylinders viscometry

C1CCCCC1 [cyclohexane] + CCCCO
mass density [kg/m3]
Conditions	x2 = 0.1	x2 = 0.2	x2 = 0.3003	x2 = 0.4005	x2 = 0.4997	x2 = 0.6001	x2 = 0.6999	x2 = 0.7998	x2 = 0.8999
293.15 K, 100 kPa	779.5	781.4	783.9	786.6	789.7	793.1	796.8	800.7	805
293.15 K, 1000 kPa	780.2	782	784.5	787.3	790.3	793.7	797.4	801.3	805.6
293.15 K, 2000 kPa	781	782.9	785.3	788.1	791.1	794.5	798.2	802	806.3
293.15 K, 5000 kPa	783.5	785.3	787.7	790.5	793.4	796.9	800.4	804.3	808.5
293.15 K, 10000 kPa	787.3	789.2	791.6	794.3	797.2	800.5	804	807.9	812
293.15 K, 15000 kPa	791.1	792.8	795.2	797.8	800.8	804	807.5	811.3	815.4
293.15 K, 20000 kPa	794.5	796.3	798.6	801.3	804.2	807.4	810.8	814.5	818.6
303.15 K, 100 kPa	770.1	772	774.6	777.6	780.9	784.5	788.5	792.3	797.1
303.15 K, 1000 kPa	770.8	772.8	775.3	778.3	781.6	785.2	789.1	793.2	797.8
303.15 K, 2000 kPa	771.7	773.7	776.2	779.2	782.5	786	789.9	794.1	798.6
303.15 K, 5000 kPa	774.4	776.3	778.8	781.7	785	788.5	792.4	796.4	800.9
303.15 K, 10000 kPa	778.5	780.4	782.9	785.7	788.9	792.5	796.2	800.2	804.6
303.15 K, 15000 kPa	782.4	784.3	786.7	789.6	792.7	796.1	799.8	803.8	808.1
303.15 K, 20000 kPa	786.2	788	790.4	793.2	796.3	799.6	803.3	807.2	811.5
303.15 K, 30000 kPa	793.2	795	797.4	800.2	803.1	806.4	810	813.8	817.9
303.15 K, 40000 kPa	799.6	801.4	803.8	806.5	809.4	812.6	816.1	819.8	823.8
313.15 K, 100 kPa	760.4	762.5	765.2	768.4	771.8	775.7	779.8	784.3	789.1
313.15 K, 1000 kPa	761.3	763.3	766.1	769.2	772.7	776.5	780.6	785	789.8
313.15 K, 2000 kPa	762.2	764.3	767	770.1	773.6	777.4	781.5	785.9	790.7
313.15 K, 5000 kPa	765.1	767.1	769.7	772.8	776.2	780	784.1	788.4	793.1
313.15 K, 10000 kPa	769.5	771.5	774.1	777.1	780.5	784.1	788.1	792.4	797
313.15 K, 15000 kPa	773.6	775.6	778.2	781.2	784.4	788	791.9	796.1	800.6
313.15 K, 20000 kPa	777.7	779.5	782.1	785	788.3	791.8	795.6	799.8	804.2
313.15 K, 30000 kPa	785.1	787	789.4	792.3	795.4	798.9	802.6	806.6	811
313.15 K, 40000 kPa	791.9	793.7	796.2	799	802	805.3	809	812.9	817.1
313.15 K, 50000 kPa	798.3	800.1	802.5	805.1	808.1	811.4	815	818.8	822.9
313.15 K, 60000 kPa	804.2	806	808.4	810.9	813.8	817	820.5	824.4	828.3
323.15 K, 100 kPa	750.6	752.8	755.6	758.9	762.6	766.6	771.1	775.7	780.7
323.15 K, 1000 kPa	751.6	753.8	756.6	759.9	763.5	767.5	771.9	776.6	781.6
323.15 K, 2000 kPa	752.6	754.8	757.6	760.8	764.5	768.5	772.9	777.5	782.5
323.15 K, 5000 kPa	755.6	757.8	760.5	763.7	767.3	771.3	775.6	780.1	785.1
323.15 K, 10000 kPa	760.3	762.5	765.2	768.3	771.8	775.7	779.9	784.4	789.2
323.15 K, 15000 kPa	764.8	766.9	769.6	772.7	776.1	779.9	783.9	788.3	793.1
323.15 K, 20000 kPa	769	771.1	773.7	776.7	780.1	783.8	787.9	792.2	796.8
323.15 K, 30000 kPa	776.9	779	781.6	784.4	787.7	791.2	795.2	799.3	803.9
323.15 K, 40000 kPa	784.2	786.1	788.6	791.4	794.6	798.1	801.8	805.9	810.3
323.15 K, 50000 kPa	790.8	792.8	795.1	797.9	801	804.4	808	812	816.3
323.15 K, 60000 kPa	797.2	799	801.4	804.1	807	810.5	814	817.9	822.1
323.15 K, 70000 kPa	802.9	804.6	806.9	809.6	812.6	815.8	819.3	823.2	827.3
323.15 K, 80000 kPa	808.6	810.1	812.3	815	817.9	821.1	824.5	828.3	832.3
333.15 K, 100 kPa	740.7	743	745.9	749.4	753.1	757.4	762.1	767	772.4
333.15 K, 1000 kPa	741.7	744	746.9	750.3	754.1	758.4	763	767.9	773.3
333.15 K, 2000 kPa	742.8	745.1	748	751.4	755.2	759.4	764	768.9	774.2
333.15 K, 5000 kPa	746.1	748.3	751.1	754.5	758.2	762.4	766.9	771.8	777
333.15 K, 10000 kPa	751.1	753.3	756.1	759.4	763	767.1	771.5	776.2	781.3
333.15 K, 15000 kPa	755.9	758	760.8	764	767.5	771.5	775.8	780.4	785.4
333.15 K, 20000 kPa	760.5	762.5	765.2	768.4	771.8	775.7	780	784.5	789.4
333.15 K, 30000 kPa	768.9	770.8	773.4	776.4	779.8	783.6	787.6	792	796.7
333.15 K, 40000 kPa	776.5	778.3	780.8	783.8	787	790.7	794.6	798.8	803.4
333.15 K, 50000 kPa	783.5	785.2	787.7	790.6	793.7	797.2	801.1	805.2	809.7
333.15 K, 60000 kPa	790	791.7	794.1	797	800.1	803.4	807.1	811.2	815.6
333.15 K, 70000 kPa	796.1	797.7	800	802.9	805.8	809.2	812.9	816.8	821.2
333.15 K, 80000 kPa	801.9	803.3	805.7	808.4	811.3	814.6	818.3	822.1	826.3
333.15 K, 90000 kPa	807.3	808.7	810.9	813.7	816.5	819.8	823.3	827.2	831.3
333.15 K, 100000 kPa	812.4	813.8	816	818.7	821.5	824.7	828.1	831.9	836

viscosity [mPa·s]
Conditions	x2 = 0	x2 = 0.1073	x2 = 0.1991	x2 = 0.2998	x2 = 0.4006	x2 = 0.4997	x2 = 0.6001	x2 = 0.7001	x2 = 0.7997	x2 = 0.8996
293.15 K	0.98	0.997	1.042	1.11	1.277	1.462	1.69	1.95	2.243	2.576
303.15 K	0.824	0.837	0.87	0.924	1.038	1.17	1.337	1.528	1.747	1.998
313.15 K	0.701	0.708	0.731	0.772	0.855	0.95	1.074	1.218	1.382	1.573
323.15 K	0.593	0.596	0.613	0.659	0.704	0.776	0.868	0.99	1.106	1.255
333.15 K	0.522	0.522	0.535	0.565	0.605	0.657	0.723	0.8	0.889	1.011
